Laboratory results published in patent US20260216336A1, “NEW PSORALEN COMPOUND” (NAGASAKI UNIVERSITY, priority 2022, published 2026).
Like-named read-outs stand apart in the source and are kept apart here.

Legend:
DNA [1] = conditions: background statement on commercially available reagent; cited from earlier work
DNA [2] = experiment: DNA crosslinking efficiency of psoralen reagents (general statements, no method given); assay type: biochemical; conditions: studies conducted by the inventors

SMILES	DNA crosslinking efficiency (DNA [1])	DNA crosslinking efficiency (DNA [2])
Cc1oc2c(C)c3oc(=O)cc(C)c3cc2c1COCCCCCCOP(OCCC#N)N(C(C)C)C(C)C (centres unmarked) [Psoralen C6 Phosphoramidite, 6-[4′-(Hydroxymethyl)-4,5′,8-trimethylpsoralen]-hexyl-1-O-(2-cyanoethyl)-(N,N-diisopropyl)-phosphoramidite]	favorable DNA crosslinking efficiency	–
O=C(CCCOc1c2occc2cc2ccc(=O)oc12)ON1C(=O)CCC1=O [SPB, succinimidyl-[4-(psoralen-8-yloxy)]butyrate]	–	very low
